What was measured:
Assay in all cases: relative viability (nuclei count vs DMSO), 5 days (fraction); higher = more cells survive
Ruxolitinib + Navitoclax = compound: N#CC[C@H](C1CCCC1)n1cc(-c2ncnc3[nH]ccc23)cn1 [Ruxolitinib] + CC1(C)CCC(c2ccc(Cl)cc2)=C(CN2CCN(c3ccc(C(=O)NS(=O)(=O)c4ccc(N[C@H](CCN5CCOCC5)CSc5ccccc5)c(S(=O)(=O)C(F)(F)F)c4)cc3)CC2)C1 [Navitoclax] (partner 0.5 µM)
In short: (§1)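 For relative viability, nuclei counts in treated wells were divided by those in vehicle wells. Lung cancer cell lines had been pin-tool dosed in 1536-well plates the day after seeding and cultured for 5 days, then fixed and stained in one step (final 0.05% Triton X-100, 1% formaldehyde, 1 ug/ml Hoechst) and imaged at 4×. Doses were one drug alone or a fixed anchor-drug dose plus five library-drug doses (not always all listed) in √10 steps, and values are duplicate-plate medians.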

VE-821 + Navitoclax = compound: CS(=O)(=O)c1ccc(-c2cnc(N)c(C(=O)Nc3ccccc3)n2)cc1 [VE-821] + CC1(C)CCC(c2ccc(Cl)cc2)=C(CN2CCN(c3ccc(C(=O)NS(=O)(=O)c4ccc(N[C@H](CCN5CCOCC5)CSc5ccccc5)c(S(=O)(=O)C(F)(F)F)c4)cc3)CC2)C1 [Navitoclax] (partner 0.5 µM)
In short: as §1

Ruxolitinib + Alpelisib = compound: N#CC[C@H](C1CCCC1)n1cc(-c2ncnc3[nH]ccc23)cn1 [Ruxolitinib] + Cc1nc(NC(=O)N2CCC[C@H]2C(N)=O)sc1-c1ccnc(C(C)(C)C(F)(F)F)c1 [Alpelisib] (partner 2 µM)
In short: as §1

Ruxolitinib + Tozasertib = compound: N#CC[C@H](C1CCCC1)n1cc(-c2ncnc3[nH]ccc23)cn1 [Ruxolitinib] + Cc1cc(Nc2cc(N3CCN(C)CC3)nc(Sc3ccc(NC(=O)C4CC4)cc3)n2)n[nH]1 [Tozasertib] (partner 0.1 µM)
In short: as §1

Cell Line | relative viability (Ruxolitinib + Navitoclax; first compound 0.08 µM) | relative viability (Ruxolitinib + Navitoclax; first compound 0.253 µM) | relative viability (Ruxolitinib + Navitoclax; first compound 0.8 µM) | relative viability (Ruxolitinib + Navitoclax; first compound 2.53 µM) | relative viability (Ruxolitinib + Navitoclax; first compound 8 µM) | relative viability (VE-821 + Navitoclax; first compound 0.08 µM) | relative viability (VE-821 + Navitoclax; first compound 0.253 µM) | relative viability (VE-821 + Navitoclax; first compound 0.8 µM) | relative viability (VE-821 + Navitoclax; first compound 2.53 µM) | relative viability (VE-821 + Navitoclax; first compound 8 µM) | relative viability (Ruxolitinib + Alpelisib; first compound 0.08 µM) | relative viability (Ruxolitinib + Alpelisib; first compound 0.253 µM) | relative viability (Ruxolitinib + Alpelisib; first compound 0.8 µM) | relative viability (Ruxolitinib + Alpelisib; first compound 2.53 µM) | relative viability (Ruxolitinib + Alpelisib; first compound 8 µM) | relative viability (Ruxolitinib + Tozasertib; first compound 0.253 µM) | relative viability (Ruxolitinib + Tozasertib; first compound 0.8 µM) | relative viability (Ruxolitinib + Tozasertib; first compound 2.53 µM) | relative viability (Ruxolitinib + Tozasertib; first compound 8 µM) | relative viability (Ruxolitinib + Tozasertib; first compound 0.08 µM)
LOU-NH91 | 0.487 | 0.688 | 0.909 | 0.585 | 0.688 | 0.75 | 0.732 | 0.592 | 0.777 | 0.564 | 0.569 | 0.674 | 0.796 | 0.736 | 0.694 | 0.627 | 0.744 | 0.65 | 0.632 | –
LU99A | 0.986 | 0.737 | 0.803 | 0.751 | 0.666 | 0.892 | 0.858 | 0.781 | 0.759 | 0.336 | 0.532 | 0.456 | 0.523 | 0.523 | 0.412 | 0.26 | 0.298 | 0.303 | 0.316 | 0.296
LXF-289 | 0.914 | 0.956 | 0.891 | 0.92 | 0.778 | 1.01 | 0.967 | 0.989 | 1.1 | 1.01 | 1.01 | 1 | 1.04 | 0.948 | 0.815 | 0.165 | 0.233 | 0.134 | 0.187 | 0.215
NCI-H23 | 0.716 | 1.12 | 0.978 | 0.801 | 0.929 | 0.856 | 0.797 | 0.553 | 0.747 | 0.491 | 0.611 | 0.726 | 0.801 | 0.72 | 0.535 | 0.418 | 0.437 | 0.401 | 0.301 | 0.434
NCI-H322M | 1.36 | 1.26 | 1.27 | 1.53 | 1.44 | 1.24 | – | 1.39 | 1.38 | 1.08 | 0.901 | 0.844 | 0.873 | 0.802 | 1.01 | 0.503 | 0.457 | 0.458 | 0.482 | 0.451
NCI-H441 | 0.817 | 0.501 | 0.659 | 0.45 | 0.623 | 0.858 | 0.673 | 0.38 | 0.768 | 0.563 | 0.665 | 0.52 | 0.71 | 0.553 | 0.565 | 0.629 | 0.716 | 0.625 | 0.587 | 0.63
NCI-H460 | 1.17 | 1.34 | 1.34 | 1.13 | 0.656 | 1.23 | 1.01 | 1.02 | 0.646 | 0.159 | 0.567 | 0.389 | 0.567 | 0.398 | 0.306 | 0.601 | 0.606 | 0.578 | 0.744 | –
NCI-H520 | – | 1.01 | 1.38 | 1.22 | 0.782 | 1.16 | 1.15 | – | 1.1 | 0.671 | – | 0.837 | 1.04 | 0.988 | 0.756 | 0.467 | 0.537 | 0.439 | 0.477 | 0.553
NCI-H596 | 0.903 | 1.05 | 1 | 1.01 | 1.14 | 0.72 | 1.05 | 0.987 | 0.894 | 0.644 | 0.521 | 0.567 | 0.559 | 0.531 | 0.547 | 0.897 | 0.962 | 0.955 | 0.799 | 0.827
NCI-H647 | – | 0.995 | 1.27 | 0.855 | 0.989 | 1.09 | 1.15 | 0.856 | 1 | 0.573 | 1.33 | 1.11 | 1.15 | 0.941 | 0.643 | 0.237 | 0.224 | 0.378 | 0.297 | 0.297
NCI-H727 | 0.472 | 0.426 | 0.627 | 0.595 | 0.366 | 0.478 | 0.57 | 0.411 | 0.546 | 0.216 | 0.604 | 0.597 | 0.874 | 0.749 | 0.338 | 0.818 | 0.674 | 0.567 | 0.589 | 0.663
NCI-H838 | 1.08 | 1.06 | 1.04 | 0.641 | 0.406 | 1.3 | 1.11 | 1.02 | 1.18 | 1.07 | 0.848 | 0.973 | 0.823 | 0.618 | 0.31 | 0.23 | 0.256 | 0.223 | 0.225 | 0.299
NCI-H1355 | 0.924 | 0.925 | 0.992 | 0.807 | 0.701 | 1.09 | 0.91 | 0.729 | 0.879 | 0.542 | 0.793 | 0.83 | 0.85 | 0.58 | 0.612 | 0.564 | 0.571 | 0.594 | 0.574 | 0.575
NCI-H1395 | – | 0.993 | 1.17 | 1.13 | 0.944 | – | 1.09 | 1.3 | 1.32 | 0.72 | – | 1.27 | 1.21 | 1.02 | 0.892 | 0.718 | 0.86 | 0.753 | 0.78 | 0.768
NCI-H1437 | 1.12 | 1.14 | 1.14 | 1.05 | 0.884 | 1.17 | 1.11 | 1.01 | 1.12 | 1.04 | 0.871 | 0.807 | 1.01 | 1.03 | 0.795 | 0.39 | 0.406 | 0.413 | 0.422 | 0.457
NCI-H1651 | 0.978 | 1.08 | 1.11 | 1.36 | 0.996 | 0.97 | 0.941 | 0.949 | 1.02 | 0.864 | 0.941 | 0.875 | 1.08 | 1.09 | 0.968 | 0.637 | 0.64 | 0.573 | 0.682 | 0.714

Source: the supplement of paper PMC10307832
